The text below walks through data of patent US6881705B2, “Fungicidal composition and use of this composition for controlling plant diseases” (Bayer Cropscience S.A., priority 2001, dated 2005).

In test [1] the test system is Geotrichum candidum. The experiment in a line: in vitro control of Geotrichum candidum on PDA medium (colony diameter in microtitre plate wells). The class given is cell-based. Conditions: 60 ppm in PDA medium; for Radial growth of the fungus (mm): 22° C., untreated control 15 mm; for Efficacy (%): colony diameter versus untreated control. How it is done:
This example gives an illustration of the efficacy of a composition according to the invention for controlling Geotrichum candidum, this trial was carried out in vitro. The fungicidal compositions are used in solution at the doses detailed in Table 1. […] 1 day later, a microdrop of an aqueous suspension of Geotrichum candidum spores, supplemented with 400 ppm of Tween 20, is brought to the surface of each well of the microtitre plate. The cultures are then incubated at 22° C., 60% relative humidity, under subdued light until the control culture (without fungicide) has covered the entire surface of the well. The diameter of each colony is then measured and, in comparison with the untreated control, a percentage efficacy is calculated using the following formula: (diameter of the control−diameter of the trial)/diameter of the control×100.

In test [2] the test system is Gloeosporium spp. The experiment in a line: in vivo trial combating Gloeosporium spp. on apples (Golden variety, preventive sprinkling). How it is done: This example proposes to give an illustration of the efficacy of a composition according to the invention for combating Gloeosporium spp. on apples, this trial was carried out in vivo. The fungicidal compositions are used in solution at the doses detailed in Table 2. Apples of the Golden variety, untreated after harvest, are treated by sprinkling a fungicidal solution up to the run-off limit at the doses described in Table 2 of results (8 apples per product). 6 hours later, the fruit are inoculated by sprinkling an aqueous suspension at 150 000 spores/ml of Gloeosporium spp. obtained from a preculture on PDA medium. This inoculation by sprinkling is carried out up to the run-off limit. The fruit are then stored in the dark at 20° C., 100% relative humidity and the scores for the disease start 3 weeks later, for a period of 2 weeks. The number of fruit affected by rot are counted and, in comparison with the untreated control, a percentage efficacy is calculated using the following formula: […].

The structures appear in SMILES notation.

On to `C=CCOC(Cn1ccnc1)c1ccc(Cl)cc1Cl` (stereo not drawn) [Imazalil, imazalil], for which, in test [1], the “Radial growth of the fungus (mm)” value was determined as 14 mm and the “Efficacy (%)” value is on record as 7%. Moreover, the “Efficacy (%)” value in test [2] (375 ppm, sprinkled on Golden apples 6 hours before inoculation, rot versus untreated control) was −29.2%.

Take `Cc1cc(C)nc(Nc2ccccc2)n1` [Pyrimethanil, pyrimethanil]: in test [1], the “Radial growth of the fungus (mm)” value is listed as 15 mm and the “Efficacy (%)” value is on record as 0%. The “Efficacy (%)” value in test [2] (75 ppm) stood at 14.9%.
